According to US8058442B2 (Technion Research and Development Foundation Ltd., priority 2002, dated 2011):
Like-named read-outs stand apart in the source and are kept apart here. Marks after values point to notes of the source that are not given here. Values belong to the compound of their own block, whether it stands above or below them.

Key:
[1] = n-octanol/water shake-flask distribution coefficient; type: physicochemical; details: for D in 0.01N HCl / D in 0.01N NaOH / D in H2O: distribution ratio D = Corg/Caq
Text: The partition coefficient (Pow) or the distribution ratio (Dow) between octanol and water are most commonly used measures of the hydrophobicity of compounds. Dow can depend on the concentration of solute, but at reasonably low concentrations. If the solute is in the same form in both phases, Dow becomes constant and is called the partition coefficient Pow. Pow plays an important role in determining the physico-chemical properties and the behaviour of numerous organic compounds in biological systems. Pow is applied to quantitative structure-activity relationship studies, and as a measure of hydrophobicity. All the partition measurements are carried out using a 1-octanol/water shake-flask procedure (Leo, A J. 1991, “Hydrophobic parameter: measurement and calculation”, Methods Enzymol. 202:544-91) or simply by the elution time of solute from HPLC column. Thereafter, the transport properties of the iron-complexes are examined in the water/lipid membrane system (liposomes), which mimics biomembranes much better than the octanol/water system (Breuer et al, 1995).
1-Octanol (Riedel-deHaën, synthesis grade (250-270 nm abs.<0.06) and glass distilled deionized water were used as the partitioning solutions. A Hewlett-Packard 8450A diode array spectrophotometer was used for the quantitative determination of the tested com-pounds in the standard solutions and in the partitioned solutions. The aqueous phase stock solutions were shaken with an excess of 1-octanol to presaturate them and were then allow-ed to stand overnight before use. The 1-octanol stock solutions were also presaturated with 10 mM NaOH and allowed to settle overnight. The experiments were performed in 10-ml stoppered centrifuge tubes. The tubes were inverted gently for 5 min and then, to assure complete phase separation, they were centrifuged for 20 min at 1,000-2,000 g. The aqueous and organic phases were removed separately and analyzed by UV spectrophotometry.
Lipophilicity plays an important role in drug absorption and distribution. The logarithm of the n-octanol/water distribution coefficients (logD) is the most commonly used measure of the lipophilicity of a drug candidate. Here we used an n-octanol/water shake-flask procedure to determine logD. […] In acidic and basic solution, all the test compounds have low log D values, which refer to a good hydrophilicity. This can be explained by the formation of oxinium chloride (in acid) and sodium oxinate (in base) derivatives.

[2] = Iron chelation in solution: fluorescence dequenching of iron-quenched calcein; details: Fe-CAL in HBS pH 7.4, room temperature, 1 h incubation, read-out: half maximal dequenching level
Procedure: Iron binding was determined by the chelator capacity for restoring the fluorescence of iron-quenched calcein (CAL), a dynamic fluorescent metallosensor. The iron-scavenging properties of the chelators were assessed in solution, by mixing iron salts with free CAL.
Iron precomplexed calcein (Fe-CAL) solutions of 1 μm (in Hepes 20 mM buffered saline, pH 7.4=HBS) were incubated in the presence of the indicated concentrations of different chelators at room temperature and the fluorescence intensity (475 nm->520 nm) followed with time in a Tecan fluorescence plate reader, using 96-well culture plates (Nunc) at 100 μl final volume. The time-dependent complexation of iron from Fe-CAL by the chelators was followed by fluorescence dequenching. The fluorescence intensity attained after 1 h incubation is shown as a function of the chelator concentration.
The corresponding half maximal dequenching level for the corresponding chelator was (in μM) (rank order from the fastest acting to the slowest): […]

[3] = system: human erythroleukemia K562 cells; assay: Iron permeation of the chelators into calcein-loaded K562 cells; type: cell-based; details: 5 μM chelator, 37° C.
Procedure: The iron-scavenging properties of the chelators were assessed in human erythroleukemia K562 cells, by loading with the permeant CAL-AM probe, in situ formation of free CAL, and binding of cytosolic labile iron. Calcein-AM readily passes through the cell membrane of viable cells because of the enhanced hydrophobicity as compared to Calcein. When Calcein-AM permeates into the cytoplasm, it is hydrolyzed by esterases in cells to the parent Calcein, a pH-independent, cytosolic fluorescent marker, which remains inside of the cell. The time-dependent recovery of fluorescence in the presence of a given chelator provided a continuous measure for the capacity of the chelator to access the iron/CAL-containing compartment.
Calcein uptake and intracellular fluorescence were determined as follows: K562 erythroleukemia cells were preloaded with calcein (CAL) by incubation with […] of the fluorescent probe CAL-AM for 5 min at 37° C., washed and incubated in HBS medium containing anti-CAL antibodies in order to quench traces of extracellular-associated fluorescence. The suspensions were placed in 96-well plates (100 μl final volume) and analyzed as described above while maintaining the system at 37° C. At the indicated time, the indicated chelator was added so as to reach a final 5 μM concentration.
The values of half maximal time (sec) and fraction of fluorescence recovery were: […]

rat brain MAO-A = target: T1, rat brain MAO-A (Rattus norvegicus, UniProt P21396); assay: In vitro inhibition of rat brain MAO-A; type: biochemical; details: rat brain homogenate
T1 construct: from tissue; host or cells: rat brain homogenate, 4500 g pellet
T1 sequence (P21396 1-526): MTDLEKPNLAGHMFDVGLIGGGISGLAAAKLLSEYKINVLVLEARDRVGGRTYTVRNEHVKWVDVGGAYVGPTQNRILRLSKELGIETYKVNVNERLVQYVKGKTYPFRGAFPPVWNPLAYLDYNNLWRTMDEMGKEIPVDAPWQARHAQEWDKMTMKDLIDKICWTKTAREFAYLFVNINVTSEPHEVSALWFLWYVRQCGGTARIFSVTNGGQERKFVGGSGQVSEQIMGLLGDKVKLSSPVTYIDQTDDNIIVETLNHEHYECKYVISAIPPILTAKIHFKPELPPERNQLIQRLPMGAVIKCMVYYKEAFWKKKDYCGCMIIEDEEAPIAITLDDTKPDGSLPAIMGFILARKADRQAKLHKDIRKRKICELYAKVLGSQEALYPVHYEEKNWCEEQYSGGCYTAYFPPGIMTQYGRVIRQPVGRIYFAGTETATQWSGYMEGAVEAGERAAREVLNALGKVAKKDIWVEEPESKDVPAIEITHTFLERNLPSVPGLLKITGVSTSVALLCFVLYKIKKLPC
Procedure: (§1) Rats were decapitated and the brains were quickly taken into a weighted ice-cold sucrose buffer (0.32 M), and their weights were determined. All subsequent procedures were performed at 0-4° C. The brains were homogenized in 0.25 M sucrose (one part tissue to 20 parts sucrose) in a Teflon glass homogenizer followed by the addition of sucrose buffer to a final concentration of 10% homogenate. The homogenates were centrifuged at 600 g for 15 min. The supernatant fraction was taken out and centrifuged at 4500 g for 30 min, the pellet was diluted in 0.32 M sucrose buffer and kept frozen for later assaying of MAO. Protein concentration was determined with Bradford reagent at 595 nm, using bovine serum albumin as a standard.
(§2) The test compound was added to a suitable dilution of the enzyme preparation (70 μg protein for MAO-B and 150 μg MAO-A assay) in 0.05 M phosphate buffer (pH 7.4). The mixture was incubated together with […], a specific inhibitor of MAO-B (for determination of MAO-A) or […] clorgylin, a specific inhibitor of MAO-A (for determination of MAO-B). Incubation was carried for 1 h at 37° C. before addition of ^14C-5-hydroxytryptamine binoxalate ([…]) for determination of MAO-A, or ^14C-phenylethylamine 100 µM for determination of MAO-B, and incubation continued for 30 min or 20 min, respectively. The reaction was stopped with 2 M ice-cold citric acid, and the metabolites were extracted and determined by liquid-scintillation counting in cpm units.
(§3) MAO-A and MAO-B activities were determined in rat brain homogenate in vitro following incubation with varying concentrations of the test compounds.
In another experiment, the in vitro inhibitory activity of HLA20, M32, VK-28, M30, M31, and propargylamine (P) was tested against rat brain MAO-A. The test compounds were added to buffer containing 10^−7M deprenyl and were incubated with the tissue homogenate for 60 min at 37° C. before addition of ^14C-5-hydroxytryptamine. MAO-A activity in presence of the test compound was expressed as a percentage of that in control samples.

rat brain MAO-B = target: T2, rat brain MAO-B (Rattus norvegicus, UniProt P19643); assay: In vitro inhibition of rat brain MAO-B; type: biochemical; details: for IC50: rat brain homogenate
T2 construct: from tissue; host or cells: rat brain homogenate, 4500 g pellet
T2 sequence (P19643 1-520): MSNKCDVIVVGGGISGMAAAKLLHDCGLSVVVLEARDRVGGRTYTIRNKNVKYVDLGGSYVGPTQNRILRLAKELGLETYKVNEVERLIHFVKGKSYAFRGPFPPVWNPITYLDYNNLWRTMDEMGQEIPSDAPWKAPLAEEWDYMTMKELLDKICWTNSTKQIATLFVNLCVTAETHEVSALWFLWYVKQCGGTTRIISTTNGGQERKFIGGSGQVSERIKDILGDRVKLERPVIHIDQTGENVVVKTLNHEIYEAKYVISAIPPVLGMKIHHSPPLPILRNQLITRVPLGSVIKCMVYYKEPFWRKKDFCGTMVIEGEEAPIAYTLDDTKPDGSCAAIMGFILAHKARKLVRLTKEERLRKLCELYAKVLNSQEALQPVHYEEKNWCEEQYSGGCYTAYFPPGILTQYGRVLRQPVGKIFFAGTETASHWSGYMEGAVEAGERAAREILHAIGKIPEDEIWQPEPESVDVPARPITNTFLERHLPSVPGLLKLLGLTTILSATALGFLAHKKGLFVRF
Procedure: as §1, §2, §3
MAO-B activity in presence of the test compound was expressed as a percentage of that in control samples.

Compound: CCOC(=O)C(Cc1ccc(O)c2ncccc12)(NC(C)=O)C(=O)OCC
- logD ([1]; H2O, read-out: LogD in H2O): 2.19
- D in 0.01N HCl ([1]; 0.01N HCl): 0.043
- D in 0.01N NaOH ([1]; 0.01N NaOH): 0.097
- D in H2O ([1]; H2O): 155.68
- logD ([1]; pH 2, 0.01N HCl, read-out: LogD in 0.01N HCl): -1.37
- logD ([1]; pH 12, 0.01N NaOH, read-out: LogD in 0.01N NaOH): -1.01
- EC50 ([2]; FIG. 1A): 5 µM

- logD [1]: < -2
- D in 0.01N HCl ([1]; 0.01N HCl): 0.0031
- D in 0.01N NaOH ([1]; 0.01N NaOH): 0.020
- D in H2O ([1]; H2O): 0.0049
- logD ([1]; pH 2): < -2
- logD ([1]; pH 12): -1.7
- EC50 ([2]; FIG. 1A): 6 µM
Compound: NC(Cc1ccc(O)c2ncccc12)C(=O)O (racemic) [HLM8, DL-3-(8-hydroxyquinolin-5-yl)alanine]
- half maximal time ([3]; FIG. 2A): 600 s

- logD [1]: -1.7
- D in 0.01N NaOH ([1]; 0.01N NaOH): 0.0014
- D in H2O ([1]; H2O): 0.018
- logD ([1]; pH 5.64): -1.42
- logD ([1]; pH 12): < -2
- D ([1]; phosphate buffer (pH = 5.64), printed in the 0.01N HCl column): 0.038^b
- EC50 ([2]; FIG. 1A): 7.2 µM
Compound: CCOC(=O)C(N)Cc1ccc(O)c2ncccc12 (racemic) [HLM9, DL-3-(8-hydroxyquinolin-5-yl)alanine ethyl ester]
- half maximal time ([3]; FIG. 2A): 200 s

- EC50 ([2]; FIG. 1A): 8.3 µM
- EC50 ([2]; FIG. 1B): 8.4 µM
- EC50 ([2]; FIG. 1C): 6.6 µM
Compound: Cc1c(O)c(=O)ccn1C [Compound L1, 1,2-dimethyl-3-hydroxy-pyridin-4-one, reference compound]

- EC50 ([2]; FIG. 1B): 9.7 µM
Compound: N[C@H](Cc1ccc(O)c2ncccc12)C(=O)O [Compound M9, D-3-(8-hydroxyquinolin-5-yl)alanine]

- EC50 ([2]; FIG. 1B): 9.85 µM
Compound: N[C@@H](Cc1ccc(O)c2ncccc12)C(=O)O [Compound M10, L-3-(8-hydroxyquinolin-5-yl)alanine]
- half maximal time ([3]; FIG. 2B): 1050 s

- EC50 ([2]; FIG. 1C): 5.4 µM
Compound: N[C@H](CSCc1ccc(O)c2ncccc12)C(=O)O [Compound M11, S-(8-hydroxyquinolin-5-ylmethyl)-D-cysteine]

- EC50 ([2]; FIG. 1C): 6 µM
Compound: N[C@@H](CSCc1ccc(O)c2ncccc12)C(=O)O [Compound M12, S-(8-hydroxyquinolin-5-ylmethyl)-L-cysteine]

- IC50 (rat brain MAO-A): < 0.1 µM
- IC50 (rat brain MAO-B): < 0.1 µM
Compound: C#CCN(C)Cc1ccc(O)c2ncccc12 [Compound M30]

- effect on MAO-A (rat brain MAO-A): almost no effect
- inhibition at 100 µM (rat brain MAO-B; 100 μM, read-out: inhibition of MAO-B): 14.2%
Compound: C#CCNC(Cc1ccc(O)c2ncccc12)C(=O)OCC (centres unmarked) [Compound M31]

- EC50 ([2]; FIG. 1A): 0.5 µM
- EC50 ([2]; FIG. 1B): 0.5 µM
- EC50 ([2]; FIG. 1C): 0.5 µM
Compound: CC(=O)N(O)CCCCCNC(=O)CCC(=O)N(O)CCCCCNC(=O)CCC(=O)N(O)CCCCCN [DFO, desferrioxamine B, reference compound]

- logD [1]: 1.79
- D in 0.01N HCl ([1]; 0.01N HCl): 0.018
- D in 0.01N NaOH ([1]; 0.01N NaOH): 2.44
- D in H2O ([1]; H2O): 62.96
- logD ([1]; pH 2): -1.74
- logD ([1]; pH 12): 0.39
- EC50 ([2]; FIG. 1A): 3.5 µM
- EC50 ([2]; FIG. 1B): 4.4 µM
Compound: CCOC(=O)N1CCN(Cc2ccc(O)c3ncccc23)CC1 [HLA16, ethyl 4-(8-hydroxyquinolin-5-ylmethyl)-1-piperazine carboxylate]
- half maximal time ([3]; FIG. 2A): 225 s
- half maximal time ([3]; FIG. 2B): 220 s

Compound: C#CCN [Propargylamine, propargylamine, reference compound]
- IC50 (rat brain MAO-A): 66.3 µM
- IC50 (rat brain MAO-B): 10.1 µM

Compound: O=C(NN=Cc1ccccc1O)c1ccncc1 [SIH, salicylaldehyde isonicotinoyl hydrazone, reference compound]
- half maximal time ([3]; FIG. 2A): 125 s
- half maximal time ([3]; FIG. 2C): 100 s

- EC50 ([2]; FIG. 1C): 3.4 µM
Compound: Fmoc-KKC(HQ)L-NH2 [Compound M7]
